By inhibition is commonly meant the percentage by which the read-out fell short of the control. What is called CC50 is the concentration at which the toxic effect on the cells reaches its halfway point. Broadly, the IC50 is the concentration needed to halve the response being measured.

This is an account of results in paper PMC12319374, “Efficient and Rapid Arylation of NH₂‐Unprotected Bromobisindole Ethanamines via Suzuki‐Miyaura Coupling: Generating New Leads Against Leishmania” (Chemistry (Weinheim an Der Bergstrasse, Germany), 2025).

Data set [1] deals with L. infantum MHOM/TN/80/IPT1 promastigotes. As to the kind of experiment: L. infantum promastigotes viability assay (MTS). The class given is cell-based, Leishmania infantum. The following applies: 72 h; for inhibition at 20 µM / IC50: Leishmania infantum; for inhibition at 20 µM / Inhibition of L. infantum at 20 µM (%): single dose 20 µM; for IC50: scalar dilutions 2:3 from 20 to 1.17 µM, mean (95% CI). Here is the method: (§1) Finally, eighteen compounds were first screened for efficacy against L. infantum MHOM/TN/80/IPT1 promastigotes at a single dose of 20 µM for 72 hours.
(§2) L. infantum MHOM/TN/80/IPT1 (WHO international reference strain) was purchased from ATCC (ATCC® 50134™) and was cultured in Evans's Modified Tobie Medium (EMTM) at 26–28 °C. To test the compounds, parasites were resuspended in RPMI-PY medium as described previously. The human monocytic cell line THP-1 (ECACC 88081201) was cultured in RPMI-1640 medium supplemented with 10% heat-inactivated Fetal Bovine Serum (FBS), 100 μg/ml streptomycin, […] and maintained in a humidified incubator at 37 °C and 5% CO2. All the cell culture reagents were purchased from Sigma-Aldrich (St. Louis, MO, USA).
Late log/stationary phase L. infantum promastigotes were resuspended in RPMI-PY medium at a density of 2.5×10^6 parasites/mL in 96-well plates (100μL/well). The anti-parasitic activity of the eighteen compounds of the library was initially investigated at a single dose of 20 μM for 72 h at 26 °C. […] Not treated parasites were included as negative control. As positive control, the anti-leishmanial drug miltefosine (Sigma-Aldrich, Milan, Italy) was used. Each condition was carried out in duplicate. To evaluate the promastigotes viability, the CellTiter 96H Aqueous Non-Radioactive Cell Proliferation Assay (Promega), based on the ability of viable cells to convert a soluble tetrazolium salt [3-(4.5-dimethylthiazol-2-yl)-5-(3-carboxymethoxy-phenyl)-2-(4-sulfophenyl)-2H-tetrazolium. MTS] to a formazan product, was performed. To this end, 20 μL of MTS/PMS (phenazinemethosulfate, Sigma-Aldrich) was added to 100 μL of culture medium and incubated at 26°C until formazan production. Absorbance was recorded on a Microplate Reader (Infinite® F50 Plus, Tecan) at 492 nm. The IC50 values were calculated using nonlinear regression curves in GraphPad Prism 8.0 (GraphPad Software,Inc., San Diego, CA). The equation used for data fitting was Y= 100/(1 + 10∧((Log IC50 −X)*HillSlope)) (hillslope not constrained), where X is the log of concentration and Y is the normalized response. […]

Data set [2] can be described thus: Evaluation of cytotoxicity on THP-1 cells (MTS). The following applies: human, 72 h. The class given is cell-based, human. Here is the method: as §1, §2
(§3) The cytotoxicity of the compounds was assessed on THP-1 cells seeded at a density of 5 × 10^5 cells per mL, 100μL/well in a 96-well plate and treated for 72 h with 20 ng/mL phorbol myristic acid (PMA) to induce differentiation into macrophages like cells. After cell adhesion to the plate, each molecule was tested at 4, 20 and 100 μM for 72 h at 37 °C.
(§4) Three selected compounds were further evaluated at different concentration, obtained from scalar dilutions 1:2 (from 100 µM to 3.12 μM) for 72 h at 37°C. The negative control (untreated THP-1 cells) and the positive control (miltefosine) were included in each experiment. Each condition was carried out in duplicate. To evaluate the compounds cytotoxicity, the CellTiter 96H Aqueous Non-Radioactive Cell Proliferation Assay (Promega), was used as described before. […]

Data set [3] relates to THP-1 cells. Kind of data set: Evaluation of cytotoxicity on THP-1 cells (MTS). The class given is cell-based, human. As to conditions: for Cytotoxicity on THP‐1 (100, 20, 4 µM) (%): 72 h, PMA-differentiated THP-1; for SI (Selectivity index = CC50/IC50): CC50 THP-1 (72 h) / IC50 L. infantum promastigotes (72 h). Here is the method:
as §1, §2, §3, §4

Data set [4] concerns the target L. donovani DNA topoisomerase I. More on the design: method as in PMID 17922678. The following applies: read-out: IC50 (DNA topoisomerase I poison); cited from earlier work.
Data set [5] concerns L. infantum promastigotes. The following applies: cited from earlier work.
Data set [6] deals with intracellular L. infantum amastigotes. Kind of data set: Anti-amastigote assay on infected THP-1 cells. Type of data set: cell-based, Leishmania infantum. As to conditions: 2 µM, 72 h treatment, differentiated THP-1 infected 24 h. Here is the method: Figure 2 Effect of 3ca, 3af, and 3aq on intracellular L. infantum amastigotes. Differentiated THP‐1 cells were infected for 24 hours at 37°C; then, the different compounds were added at 2 µM, and the efficacy on intracellular amastigotes was calculated after 72 hours of treatment. Miltefosine was used as a positive control. (A) Percentages of infection are presented as mean ± SD. Ordinary one‐way ANOVA with Dunnett's multiple comparisons test. *p ≤ 0.05, **p ≤ 0.01 *** p ≤ 0.001. (B) Representative merged images showing THP‐1 cells stained with Hoechst dye (blue) and Leishmania amastigotes stained with CFSE (green).
The activity of compounds 3af, 3ca, and 3aq against intracellular amastigotes was evaluated in THP-1 infected cells. Briefly, THP-1 cells were seeded in a 12-well plate with a density of 3 × 10^5 cells/well and, to induce differentiation into macrophage-like cells, were treated with 20 ng/mL phorbol myristic acid (PMA) for 48 h. After differentiation, cells were infected for 24 h with L. infantum MHOM/TN/80/IPT1 promastigotes stained with carboxyfluorescein succinimidyl ester (eBioscience™ CFSE, Invitrogen) as described in reference, with a parasite-to-cell ratio of 10:1. Non-internalized promastigotes were then removed through medium replacement, and infected cells were treated with 3af, 3ca, and 3aq or with the positive control miltefosine for 72 h at concentrations of 2, 10, and 20 μM. To monitor the infection, cells were washed, formaldehyde/methanol fixed, stained with Hoechst dye, and observed with a fluorescence microscope at 5X or 10X magnification. For each field, two images were acquired: one with excitation at 340-390 nm (for Hoechst dye) and the other with excitation at 460-495 nm (for CFSE). Automated cell counting of single-color images was performed with ImageJ software to monitor the rate of infection, which was determined by normalizing the amastigote count from each green (CFSE) image to the THP-1 cell count from the corresponding blue (Hoechst) image. At least 500 THP-1 cells were counted for each condition. […]

In data set [7] the test system is L. donovani. On the set-up: method as in PMID 23517732. The following applies: read-out: IC50 against L. donovani; cited from earlier work.
[8] abbreviates: roughly determined from 100, 20 and 4 µM, read-out: CC50 interval on THP-1 cells.
[9] abbreviates: scalar dilutions 1:2 from 100 to 3.12 µM, mean (95% CI), read-out: THP‐1 CC50 (µM) (95% CI).

Where “and” joins values, the source holds several entries; their conditions need not be identical. Identical values can stand only once. Entries after “also recorded” stand apart in the source; their conditions may differ. Like-named read-outs stand apart in the source and are kept apart here.

In data set [1], `CC(C)Cc1ccc(-c2ccc3c(C(CN)c4c[nH]c5cc(-c6ccc(CC(C)C)cc6)ccc45)c[nH]c3c2)cc1` [3ac, 2,2-bis(6-(4-isobutylphenyl)-1H-indol-3-yl)ethan-1-amine] showed an inhibition at 20 µM not above 51.4%. For the same molecule, the CC50 at 72 h in data set [2] (setting [8]) is 20 to 100 µM. In addition, the “Cytotoxicity on THP‐1 (100, 20, 4 µM) (%)” value (from here on “Cytotoxicity … (%)”) in data set [3] (4 µM) is −17%; in data set [3] (20 µM), 1%; in data set [3] (100 µM), 88%.

The molecule `CCCCCCCCCCCCCCCCOP(=O)([O-])OCC[N+](C)(C)C` [Milt, miltefosine, reference compound] had an IC50 in data set [1] of 3.7 µM. In data set [1], this molecule gave an inhibition at 20 µM of 98.5%. Also, the CC50 at 72 h in data set [2] (setting [9]) was found to be 36.6 µM. Further, the “Cytotoxicity … (%)” value in data set [3] (4 µM) is −35%; in data set [3] (20 µM), 6%; in data set [3] (100 µM), 99%. For the same molecule, the “SI (Selectivity index = CC50/IC50)” value in data set [3] amounted to 9.8.

`c1ccc2c(Cc3c[nH]c4ccccc34)c[nH]c2c1` [DIM, 3,3′‐Diindolylmethane]: the IC50 in data set [4] is 1.2 µM.

As to `NCC(c1c[nH]c2cc(Br)ccc12)c1c[nH]c2cc(Br)ccc12` [1a, 2,2‐bis(6‐bromo‐1H‐indol‐3‐yl) ethanamine], the “Activity against L. infantum” value in data set [5] is given as “active”.

Consider `NCC(c1c[nH]c2cc(-c3cccc(-c4ccccc4)c3)ccc12)c1c[nH]c2cc(-c3cccc(-c4ccccc4)c3)ccc12` [3ah, 2,2-bis(6-([1,1'-biphenyl]-3-yl)-1H-indol-3-yl)ethan-1-amine], for which the CC50 at 72 h in data set [2] (setting [8]) fell in the range of 20 to 100 µM. The “Cytotoxicity … (%)” value is on record as −20% in data set [3] (4 µM), 32% in data set [3] (20 µM) and 77% in data set [3] (100 µM).

Regarding `NCC(c1c[nH]c2c(-c3ccccc3)cccc12)c1c[nH]c2c(-c3ccccc3)cccc12` [3ca, 2,2-bis(7-phenyl-1H-indol-3-yl)ethan-1-amine], in data set [1], 1.7 µM corresponded to half-maximal inhibition (IC50), the inhibition at 20 µM is more than 98% and the “Inhibition of L. infantum at 20 µM (%)” value is listed as 98.0%. In data set [6], the “Effect on infection (intracellular amastigotes)” value (“Effect on infection” for short) is recorded as “significant reduction in the infection; also recorded: significant activity”. Also, the cytotoxic concentration (CC50) at 72 h in data set [2] (setting [9]) stood at 18.1 µM. Also, the “Cytotoxicity … (%)” value in data set [3] (4 µM) is −19%. The “Cytotoxicity … (%)” value in data set [3] (20 µM) stood at 98%. Further, the “Cytotoxicity … (%)” value in data set [3] (100 µM) is reported as 89%. The “SI (Selectivity index = CC50/IC50)” value in data set [3] was 10.7.

In the case of `NCC(c1c[nH]c2cc(-c3cccc4[nH]ccc34)ccc12)c1c[nH]c2cc(-c3cccc4[nH]ccc34)ccc12` [3aq, 2,2-di(1H,1'H-[4,6'-biindol]-3'-yl)ethan-1-amine], the half-maximal inhibitory concentration (IC50) in data set [1] was 2.8 µM. This molecule showed an inhibition at 20 µM in data set [1] of 96.9%. Further, the “Effect on infection” value in data set [6] is “significant reduction in the infection; also recorded: significant activity”. The CC50 at 72 h in data set [2] (setting [9]) was determined as 14.6 µM. In addition, the “Cytotoxicity … (%)” value is −16% in data set [3] (4 µM); 72.9% and 73% in data set [3] (20 µM); 89% in data set [3] (100 µM). Further, the “SI (Selectivity index = CC50/IC50)” value in data set [3] stood at 5.2.

With `O=[N+]([O-])c1ccc(C(c2c[nH]c3ccc(I)cc23)c2c[nH]c3ccc(I)cc23)cc1` [II], the IC50 in data set [7] was less than 10 µM.

Turning to `C=Cc1ccc(-c2ccc3c(C(CN)c4c[nH]c5cc(-c6ccc(C=C)cc6)ccc45)c[nH]c3c2)cc1` [3af, 2,2-bis(6-(4-vinylphenyl)-1H-indol-3-yl)ethan-1-amine], in data set [1], the IC50 amounted to 1.1 µM, the inhibition at 20 µM is more than 98% and the “Inhibition of L. infantum at 20 µM (%)” value stood at 98.7%. Moreover, in data set [6], the “Effect on infection” value is “significant reduction in the infection; also recorded: significant activity”. In data set [2] (setting [9]), the CC50 at 72 h turned out to be 24 µM. In addition, in data set [3] (4 µM), the “Cytotoxicity … (%)” value is recorded as −14%. Moreover, in data set [3] (20 µM), the “Cytotoxicity … (%)” value is on record as 97%. The “Cytotoxicity … (%)” value in data set [3] (100 µM) is 78%. The “SI (Selectivity index = CC50/IC50)” value in data set [3] is on record as 21.8.

Molecule `COc1cccc(OC)c1-c1ccc2c(C(CN)c3c[nH]c4cc(-c5c(OC)cccc5OC)ccc34)c[nH]c2c1` [3al, 2,2-bis(6-(2,6-dimethoxyphenyl)-1H-indol-3-yl)ethan-1-amine] yielded an inhibition at 20 µM in data set [1] not above 51.4%. The CC50 at 72 h in data set [2] (setting [8]) lay within 20 to 100 µM. Moreover, the entries for the “Cytotoxicity … (%)” value in data set [3] (4 µM), in data set [3] (20 µM) and in data set [3] (100 µM) were −5%, 47% and 84%, respectively.

In the case of `CC(C)(C)OC(=O)n1cccc1-c1ccc2c(C(CN)c3c[nH]c4cc(-c5cccn5C(=O)OC(C)(C)C)ccc34)c[nH]c2c1` [3ap, di-tert-butyl 2,2'-((2-aminoethane-1,1-diyl)bis(1H-indole-3,6-diyl))bis(1H-pyrrole-1-carboxylate)], the inhibition at 20 µM in data set [1] was found to be 92.6%. The “Cytotoxicity … (%)” value in data set [3] (4 µM) amounted to 22%; in data set [3] (20 µM) it was 97%; in data set [3] (100 µM), 85%.

As for `COc1cccc(-c2ccc3c(C(CN)c4c[nH]c5cc(-c6cccc(OC)c6)ccc45)c[nH]c3c2)c1` [3aj, 2,2-bis(6-(3-methoxyphenyl)-1H-indol-3-yl)ethan-1-amine], the inhibition at 20 µM in data set [1] worked out at 96.5%. Also, the results for the “Cytotoxicity … (%)” value in data set [3] (4 µM), in data set [3] (20 µM) and in data set [3] (100 µM) were 2%, 97% and 85%, respectively.
